This passage reports IC₅₀ results from EP0576766A1, “Propanolamine derivatives, their preparation and use” (NOVO NORDISK A/S, priority 1992, dated 1994).

This test concerns voltage operated calcium channels (VOC). Briefly: Inhibition of depolarization-stimulated 45Ca uptake into brain synaptosomes. Type of test: biochemical. The settings on record: inhibition of stimulated uptake of ⁴⁵Ca in depolarized (145 mM KCl) rat cerebral cortex synaptosomes (P₂ fraction), corrected for basal uptake; 15 s incubation; estimated from dose response curves. The source says: The pharmacological properties of the compounds of the invention can be illustrated by determining their capability to inhibit calcium uptake into brain synaptosomes.
Depolarization of neuronal membranes leads to an opening of socalled "voltage operated calcium channels" (VOC) in the membranes which allows a massive influx of calcium from the extracellular space. A crude synaptosomal preparation (socalled P₂ fraction) contains small vesicles surrounded by neuronal membrane and it is possible in such a preparation to study a depolarization-induced opening of VOC.
A male Wistar rat is decapitated and the cerebral cortex removed and homogenized in 10 ml. of ice-cold 0.32 M sucrose using a glass homogenizer with a teflon pestle. All subsequent steps for isolation of synaptosomes are done at 0-4°C. The homogenate is centrifuged at 1000 x g for 10 min and the resulting supernatant is re-centrifuged at 18000 x g for 20 min. This pellet (P₂) is resuspended in 0.32 M sucrose (5 ml per g of original tissue) with a teflon pestle.
The tubes are pre-incubated for 30 min on ice and then for 6 min at 37°C in a water bath.
The incubation is continued for 15 s.
The amount of radioactivity on the filter disc is determined by liquid scintillation spectrometry.
Test substances are dissolved in 10 ml of 48% ethanol at a concentration of 0.44 mg/ml. Dilution are made in 48% ethanol to give final concentrations of 0.1, 0.3, 1, 3 and 10 µg/ml. Experiments are performed in triplicate. Controls for depolarized and nondepolarized samples are included in the assay and test substances are only tested in depolarized samples.
The test value will be given as IC₅₀ (the concentration (µg/ml) of test substance which inhibit 50% of stimulated uptake of ⁴⁵Ca (uptake in depolarized samples corrected for basal uptake in nondepolarized samples )). The IC₅₀ value is estimated from dose response curves.

Counter-ions that a name gives are not always drawn.

Take `N#Cc1ccc(C(CCN2CCCCC2)Oc2ccc(C(F)(F)F)cc2)cc1.O=C(O)C(=O)O` (stereo not drawn) [Compound 25, 1-(3-(4-Cyanophenyl)-3-(4-trifluoromethylphenoxy)propyl)piperidine, oxalate]: the IC₅₀ is 2.2 µg/mL.

As to `FC(F)(F)c1ccc(OC(CCN2CCOCC2)c2ccccc2)cc1.O=C(O)C(=O)O` (stereo not drawn) [Compound 3, 4-(3-Phenyl-3-(4-trifluoromethylphenoxy)propyl)morpholine, oxalate], the IC₅₀ is 17 µg/mL. With `CN(C)CCC(Oc1cccc(C(F)(F)F)c1)c1ccc([N+](=O)[O-])cc1.Cl` (stereo not drawn) [Compound 15, N,N-dimethyl-3-(4-nitrophenyl)-3-(3-trifluoromethylphenoxy)propanamine, hydrochloride] the figure was 6.1 µg/mL; with `CC(=O)Nc1cccc(C(CCN2CCCCC2)Oc2ccc(C(F)(F)F)cc2)c1.O=C(O)C(=O)O` (stereo not drawn) [Compound 24, 1-(3-(3-Acetamidophenyl)-3-(4-trifluoromethylphenoxy)propyl)piperidine, oxalate], 5.3 µg/mL.

For `CC(=O)Nc1ccc(C(CCN2CCCCC2)Oc2ccc(C(F)(F)F)cc2)cc1.O=C(O)C(=O)O` (stereo not drawn) [Compound 23, 1-(3-(4-Acetamidophenyl)-3-(4-trifluoromethylphenoxy)propyl)piperidine, oxalate], the IC₅₀ is 4.0 µg/mL. On to `Cl.c1ccc(C(CCN2CCOCC2)Oc2ccc3c(c2)CCC3)cc1` (stereo not drawn) [Compound 2, 4-(3-(5-Indanyloxy)-3-phenylpropyl)morpholine, hydrochloride], for which the IC₅₀ was 16 µg/mL.

On to `CN1CCN(CCC(Oc2ccc(C(F)(F)F)cc2)c2ccccc2)CC1` (stereo not drawn) [Compound 5, 1-(3-Phenyl-3-(4-trifluoromethylphenoxy)propyl)-4-methyl piperazine, oxalate], for which the IC₅₀ was 7.5 µg/mL.

Consider `CN(C)CCC(Oc1ccc2c(c1)CCCC2)c1ccc([N+](=O)[O-])cc1.Cl` (stereo not drawn) [Compound 17, N,N-dimethyl-3-(4-nitrophenyl)-3-(5,6,7,8-tetrahydro-2-naphthoxy)propanamine, hydrochloride], for which the IC₅₀ is 4.9 µg/mL. With `FC(F)(F)c1ccc(OC2c3ccccc3CC2CN2CCCCC2)cc1` (stereo not drawn) [Compound 20, trans-1-(1-(4-Trifluoromethylphenoxy)indan-2-yl)methyl piperidine, hydrochloride] the figure was 8.0 µg/mL.
